Experimental findings from patent publication US10562895B2, “Pyrroloquinoline quinone B crystal form and preparation method therefor” (ZHUCHENG HAOTIAN PHARM CO., LTD, priority 2015, dated 2020) are described below.

A short description of the data set: hygroscopicity analysis (DVS). Type of data set: physicochemical. The text has this: The crystal form B of pyrroloquinoline quinone provided by the present invention is characterized by solid-state methods, such as an X-ray powder diffraction (XRPD), a thermogravimetric analysis (TG), a differential scanning calorimetry analysis (DSC), an infrared (IR) analysis, and a hygroscopicity analysis (DVS). A solid sample of the crystal form B of pyrroloquinoline quinone obtained in Example 1 was subjected to a hygroscopicity analysis.

Consider `O=C(O)c1cc(C(=O)O)c2c(n1)C(=O)C(=O)c1cc(C(=O)O)[nH]c1-2` [4,5-Dihydro-4,5-dioxo-1H-pyrrolo[2,3-f]quinoline-2,7,9-tricarboxylic acid], for which, where the note is “at a relative humidity of 85-95%, FIG. 5”, the “water adsorption / solid form change” value is “adsorbed a molecule of water and was converted into a monohydrate compound”. For the same molecule, the hygroscopicity entry (solid sample obtained in Example 1, FIG. 5) is reported as “low hygroscopicity”.
